Measured values reported in the supplement of paper PMC10307832.

Experiments:
Assay in all cases: relative viability (nuclei count vs DMSO), 5 days (fraction); higher = more cells survive
Palbociclib + Foretinib = compound: CC(=O)c1c(C)c2cnc(Nc3ccc(N4CCNCC4)cn3)nc2n(C2CCCC2)c1=O [Palbociclib] + COc1cc2c(Oc3ccc(NC(=O)C4(C(=O)Nc5ccc(F)cc5)CC4)cc3F)ccnc2cc1OCCCN1CCOCC1 [Foretinib] (partner 0.25 µM)
How it was run: (§1)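 Lung cancer cell lines in 1536-well plates got either a single drug or a fixed anchor-drug dose together with five library-drug doses (not always all listed) in √10 steps, by pin tool, on the day after seeding. Nuclei were counted after 5 days, and relative viability is the treated-to-vehicle ratio of nuclei counts. Values are medians of duplicate plates.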

Palbociclib + Tozasertib = compound: CC(=O)c1c(C)c2cnc(Nc3ccc(N4CCNCC4)cn3)nc2n(C2CCCC2)c1=O [Palbociclib] + Cc1cc(Nc2cc(N3CCN(C)CC3)nc(Sc3ccc(NC(=O)C4CC4)cc3)n2)n[nH]1 [Tozasertib] (partner 0.1 µM)
How it was run: as §1

Palbociclib + Dasatinib = compound: CC(=O)c1c(C)c2cnc(Nc3ccc(N4CCNCC4)cn3)nc2n(C2CCCC2)c1=O [Palbociclib] + Cc1nc(Nc2ncc(C(=O)Nc3c(C)cccc3Cl)s2)cc(N2CCN(CCO)CC2)n1 [Dasatinib] (partner 0.075 µM)
How it was run: as §1

Row | Cell Line | relative viability (Palbociclib + Foretinib; first compound 0.01 µM) | relative viability (Palbociclib + Foretinib; first compound 0.03162 µM) | relative viability (Palbociclib + Foretinib; first compound 0.1 µM) | relative viability (Palbociclib + Foretinib; first compound 0.3162 µM) | relative viability (Palbociclib + Foretinib; first compound 1 µM) | relative viability (Palbociclib + Tozasertib; first compound 0.01 µM) | relative viability (Palbociclib + Tozasertib; first compound 0.03162 µM) | relative viability (Palbociclib + Tozasertib; first compound 0.1 µM) | relative viability (Palbociclib + Tozasertib; first compound 0.3162 µM) | relative viability (Palbociclib + Tozasertib; first compound 1 µM) | relative viability (Palbociclib + Dasatinib; first compound 0.01 µM) | relative viability (Palbociclib + Dasatinib; first compound 0.03162 µM) | relative viability (Palbociclib + Dasatinib; first compound 0.1 µM) | relative viability (Palbociclib + Dasatinib; first compound 0.3162 µM) | relative viability (Palbociclib + Dasatinib; first compound 1 µM)
1 | NCI-H1975 | 0.932 | 0.853 | 0.899 | 0.828 | 0.81 | 0.733 | 0.664 | 0.577 | 0.694 | 0.592 | 0.373 | 0.347 | 0.323 | 0.322 | 0.297
2 | NCI-H1993 | 0.815 | 0.633 | 0.671 | 0.627 | 0.52 | 0.612 | 0.572 | 0.575 | 0.507 | 0.509 | 0.68 | 0.542 | 0.509 | 0.415 | 0.439
3 | NCI-H2009 | 1.2 | 1 | 0.998 | 0.728 | 0.495 | 0.739 | 0.729 | 0.625 | 0.479 | 0.346 | 0.272 | 0.212 | 0.187 | 0.223 | 0.159
4 | NCI-H2023 | 0.929 | 0.523 | 0.556 | 0.474 | 0.322 | 0.377 | 0.31 | 0.314 | 0.297 | 0.292 | 0.536 | 0.488 | 0.351 | 0.453 | 0.246
5 | NCI-H2085 | 1.03 | 0.875 | 0.744 | 0.599 | 0.534 | 0.84 | 0.701 | 0.689 | 0.635 | 0.523 | 0.233 | 0.282 | 0.209 | 0.252 | 0.191
6 | NCI-H2087 | 0.951 |  | 0.838 | 0.631 | 0.47 | 0.212 |  | 0.189 | 0.189 | 0.156 | 0.784 |  | 0.658 | 0.385 | 0.328
7 | NCI-H2126 | 1.28 | 0.93 | 0.904 | 0.78 | 0.603 | 0.837 | 0.746 | 0.531 | 0.542 | 0.363 | 0.574 | 0.449 | 0.355 | 0.387 | 0.27
